Here are results for four substances from article PMC6979384, “Characterization of the plant homeodomain (PHD) reader family for their histone tail interactions” (Epigenetics & Chromatin, 2020).

“Also recorded” adds a separate entry of the source.

One assay has as its system AIRE (PP). Nature of the assay: PHD finger domain microarray. It is filed as binding, human. From the text: (§1) To define the histone binding preferences of the PHD finger proteome, we expressed and purified 123 annotated human PHD-containing domains as GST-tagged recombinant fusions from E. coli. The recombinant proteins consisted of either PHD fingers in isolation, or as tandem domains if a given PHD finger was located adjacent to another reader domain (e.g., one or more PHD fingers, Tudor, chromo and/or bromodomains) (Additional file 1: Table S1). These GST fusions were printed in duplicate on nitrocellulose-coated microarray slides and probed with biotinylated peptides that represented the N-termini of H3, H4, H2A or H2B (Fig. 1a and Additional file 2: Figure S1). As the majority of PHD readers thus far characterized are H3K4me0/3 readers, we included additional peptides (H3K4 as either mono-, di-, or trimethylated) to further determine any H3K4 methyl preference (Additional file 2: Figure S2 and Fig. 1b). As a control, we also probed these microarrays with an α-Tubulin peptide (a.a. 30–50) that would not be predicted to interact with PHD fingers (Additional file 2: Figure S1). […] We also cannot exclude the possibility that some PHD fingers might not be functionally active on the microarrays (perhaps due to misfolding or the lack of an important adjacent region).
(§2) The protein domain microarray was designed to include 123 GST-tagged PHD-domain containing recombinant proteins. Protein domain microarray development and probing was as previously. Briefly, recombinant proteins were synthesized and cloned into pGEX-4T-1 vector by Biomatik Corporation. These GST-PHD readers were subsequently expressed, purified, and spotted in duplicate onto nitrocellulose-coated glass slides (Oncyte Avid slides, Grace Bio-Labs) using a pin arrayer (Aushon 2470, Aushon). For probing, microarray slides were blocked with 3% milk, 3% bovine serum albumin, 0.1% Tween 20 in PBS. Biotinylated peptides were pre-labeled with streptavidin-Cy3 fluorophore (GE Healthcare) and incubated with the blocked array slides. Slides were then washed with PBST and allowed to air dry. Fluorescent interactions were visualized using a GenePix 4200A Microarray Scanner (Molecular Devices).

A further assay concerns KDM5A (PHD1). Nature of the assay: PHD finger domain microarray. The format is binding, human.
Source text: as §1, §2

Assay [1] relates to KDM5B (PHD1). Nature of the assay: PHD finger domain microarray. It is filed as binding, human.
Source text: as §1, §2

The subject of another assay is TRIM66 (PB). As to the kind of experiment: PHD finger domain microarray. It is filed as binding, human.
Source text: as §1, §2

Another assay has as its system PHF21A. As to the kind of experiment: PHD finger domain microarray. It is filed as binding, human.
Source text: as §1, §2

Assay [2] deals with KDM5B (PHD1). Nature of the assay: Peptide pulldown (immunoblot). The format is binding, human. As to conditions: n = 2. The protocol:
(§3) The 31 GST-tagged PHD readers identified in the PHD finger domain array were expressed and purified as previously. Histone peptide arrays and peptide pulldown assays were conducted as recently described (specifically, the optimized protocol from Petell et al. for the former).
(§4) Figure S5. Peptide Pulldowns with KDM7A and KDM5B (PPC2W2). Representative immunoblot analysis of peptide pulldowns for the PHD fingers of KDM7A and KDM5B (PHD1) with the peptides indicated on the top of the image (n=2).
(In general: A western blot detects proteins with antibodies after separation by electrophoresis.)

Another assay concerns DIDO1. Nature of the assay: dCypher AlphaScreen Phase B (full peptide screen). It is filed as binding, human. As to conditions: reader 0.1 nM, 100 nM peptide, 23 °C, n = 2. How it is done: (§5) X-axes are log(protein concentration (M)) at constant peptide concentration (100 nM); Y-axes are AlphaScreen counts, representing relative strength of binding (n = 2; error bars are S.D.). i Heat map represents relative binding to H3 N-terminal peptides (left) by PHD-containing GST-tagged proteins (top) using the dCypher AlphaScreen platform. Protein concentrations can be found in Additional file 5: Table S4. Binding strength is indicated by color gradient from green to yellow (stronger to weaker). […] Alpha counts (n = 2) were normalized individually for each protein to the highest signal for each respective assay. For full dCypher peptide screen data, see Additional file 4: Table S3
(§6) Once the optimal protein concentration ranges for each of the eight readers were determined, we conducted the full dCypher peptide screen (293 histone peptides) (Fig. 3i; Additional file 4: Table S3).
(§7) The dCypher peptide screen assay was performed as previously described. Briefly, 5 μL of GST-tagged reader domains (optimal protein concentration for library screening determined by initial binding curves to candidate peptides) were incubated with 5 μL of 400 nM (100 nM Final) biotinylated histone peptides (EpiCypher) for 30 min at 23 °C in 1× AlphaLISA Epigenetics buffer + epigenetics buffer supplement (PerkinElmer, AL1008) in a 384-well plate. A 10 μL mix of 5 µg/mL (2.5 μg/mL final) glutathione Acceptor beads (PerkinElmer, AL109M) and 10 μg/mL (5 μg/mL final) streptavidin Donor beads (PerkinElmer, 6760002) was prepared in 1× [Epigenetics buffer + supplement] and added to each well. Plates were incubated at 23 °C in subdued lighting for 60 min and AlphaLISA signal measured on a PerkinElmer 2104 EnVision (680 nm laser excitation, 570 nm emission filter ± 50 nm bandwidth).
(§8) Supplementary file 13072_2020_328_MOESM4_ESM.xlsx: Additional file 4: Table S3. dCypher Results. Excel Tab Peptide Phase A is a compiled set of binding data: chromatin reader titration vs. several peptide targets. Data is presented as raw Alpha counts in duplicates at each concentration tested. Excel Tab Peptide Phase B is a compiled set of binding data: chromatin reader at optimized concentrations vs. entire 293 peptide library. Data is presented as the average and standard deviation of duplicates. […] Key: red = strong binding; blue = weak/no binding.
For orientation: Bead proximity is the source of the signal in Alpha formats.

For the next assay, the system named is KDM5A (PHD3). Nature of the assay: PHD finger domain microarray. It is filed as binding, human.
Source text: as §1, §2

The test system of the next assay is KDM7A PHD finger. Nature of the assay: Peptide pulldown (immunoblot). As to conditions: n = 2. It is filed as binding, human. How it is done: as §3, §4
The test system of a further assay is DPF2 (PPC2W2). Nature of the assay: dCypher AlphaScreen Phase B (full peptide screen). The format is binding, human. To be noted: reader 0.1 nM, 100 nM peptide, 23 °C, n = 2. How it is done: as §5, §6, §7, §8
A further assay relates to CHD4. To be noted: cited from earlier work. The source says: Plant homeodomain fingers comprise one of the largest families of reader domains, with over 100 human proteins containing this module. PHD fingers are Zn-coordinating domains that generally recognize unmodified or methylated lysines. To date, the majority of those characterized bind to histone H3 tails either methylated at K4 [7], or unmodified in that position (i.e., KDM5B PHD3 versus KDM5B PHD1 [10, 11] or PHF21A, also known as BHC80 [12]).

Regarding “H3 (1-20): unmodified H3 N-terminal peptide (1–20)”, the binding preference entry is reported as “preference for the unmethylated H3K4 state” in the assay on AIRE (PP); “preference for the unmethylated H3K4 state” in the assay with KDM5A (PHD1); “preference for the unmethylated H3K4 state” with KDM5B (PHD1) [1]; “preference for the unmethylated H3K4 state” in the assay with TRIM66 (PB) (listed as unmethylated H3K4); “readers of the unmodified H3 tail” with TRIM66 (PB) (listed as unmodified H3 tail); “preference for the unmethylated H3K4 state” in the assay with PHF21A. Also, in the assay on KDM5B (PHD1) [2], the “binding in peptide pulldown” value is listed as “reads H3K4me0”.
For H3K4me1: H3 1-20 [Peptide H3K4me1], the binding result in the assay with DIDO1 is reported as “also identified interaction of these domains with the H3K4me1 peptide”.
As to H3K4me3: H3 1-20 [Peptide H3K4me3], the binding preference result in the assay with KDM5A (PHD3) is on record as “consistent with their current classification as H3K4me3 binders”. In addition, the “binding in peptide pulldown” value in the assay with KDM7A PHD finger is on record as “binds H3K4me3”.
Turning to H3K9me3: H3 1-20 [Peptide H3K9me3], the binding result in the assay on DPF2 (PPC2W2) is “ability to bind to the peptides containing H3K9me3”. Besides, the reported binding entry with CHD4 is “annotated to recognize H3K9me3; also recorded: reported as readers of H3K9 trimethylation”.
